Reference: patent publication US20050240034A1, “Artemisinin-based peroxide compounds as broad spectrum anti-infective agents” (priority 2002, published 2005)

Legend:
P. falciparum = conditions: cited from earlier work
[1] = tested on: P. falciparum D6 (Sierra Leone); assay: antimalarial parasite LDH (pLDH) assay, D6; assay type: cell-based, Plasmodium falciparum; conditions: for P. falciparum (IC50) D6: LDH assay, Table 6; for S. I. (D6): Selectivity Index = IC50 (Vero cells)/IC50 (P. falciparum)
Description: (§1) The Thad Cochran National Center for Natural Products Research (University of Mississippi) in vitro antimalarial screen was conducted using an enzyme assay for detection of P. falciparum (see procedure below). This assay is based on the observation that lactate dehydrogenase (LDH) of P. falciparum is distinguishable from host LDH activity. P. falciparum LDH rapidly uses 3-acetyl pyridine nicotinamide adenine dinucleotide (APAD) as a coenzyme in the biotransformation of […].^38 The same process is carried out in human red blood cells at a very slow rate.
(§2) The “Antimalarial parasite LDH assay” is currently being conducted according the following procedure: prepare a suspension of RBC with a 2% parasitemia and 2% hematocrit in malaria complete medium. Dispense 200 μl aliquots of this suspension into each well of a 96 well microtiter plate. Add 10 μl volumes of the drugs to be tested in duplicate to the appropriate wells. Place the plates into humidified chamber and flush the cultures with a gas mixture consisting of 90% N2, 5% O2, and 5% CO2. Transfer the chamber containing the plates to an incubator, and incubate for 48 hours at 37° C. After 48 hours add 100 μl aliquots of the Malstat™ reagent to each well of a new 96-well microtiter plate Resuspend the cultures from the assay plate by mixing each well up and down several times. Remove 20 μl from each well of the resuspend culture and add to the plate containing the Malstat™ reagent. Incubate the plates at room temperature for 30 minutes. After 30 minutes, add to each well 20 μl of the 1:1 mixture of the NBT/PES solution (2 mg/ml and 0.1 mg/ml, respectively). Incubate the plates in the dark for 1 hour. Add 100 μl of 5% acetic acid solution to stop the reaction. The plate is then read at an endpoint of approximately 650 nm. The dose response curves are generated using Microsoft Excel.
(§3) Antimalarial activity of the analogues was determined in vitro on chloroquine sensitive (D)6, Sierra Leone) and resistant (W2, IndoChina) strains of Plasmodium falciparum. The 96 well microplate assay is based on evaluation of the effect of the compounds on the growth of asynchronous cultures of P. falciparum, determined by the assay of parasite lactate dehydrogenase (pLDH) activity.^28 The appropriate dilutions of the compounds were prepared in DMSO or RPMI-1640 medium and added to the cultures of P. falciparum (2% hematocrit, 2% parasitemia) set up in clear flat bottomed 96 well plates. The plates were placed into the humidified chamber and flushed with a gas mixture of 90% N2, 5% CO2 & 5% O2. The cultures were incubated at 37° C. for 48 hours. Growth of the parasite in each well was determined by pLDH assay using Malstat® reagent. The medium and RBC controls were also set-up in each plate. The standard antimalarial agents, chloroquine and artemisinin, were used as the positive controls while DMSO was tested as the negative control.

P. berghei N = assay: in vivo Peter's 4-day antimalarial test in mice, P. berghei N; conditions: mice, 4-day test, unit not given; for P. berghei N P.O. ED50 / P. berghei N P.O. ED90: oral; for P. berghei N S.C. ED50 / P. berghei N S.C. ED90: subcutaneous
Description: (§4) The parasitemia is determined on the day following the last treatment—day 4 to determine qualitatively the presence and degree of activity at the screening dose.

[2] = tested on: P. falciparum W2 (IndoChina); assay: antimalarial parasite LDH (pLDH) assay, W2; assay type: cell-based, Plasmodium falciparum; conditions: for P. falciparum (IC50) W2: LDH assay, Table 6; for S. I. (W2): Selectivity Index = IC50 (Vero cells)/IC50 (P. falciparum)
Description: as §1, §2
as §3, with “plate.” for “plate. The standard antimalarial agents, chloroquine and artemisinin, were used as the positive controls while DMSO was tested as the negative control.”

[3] = tested on: P. falciparum Indochina W2 clone; assay: WHO/TDR in vitro antimalarial screen, W2 clone; assay type: cell-based, Plasmodium falciparum; conditions: chloroquine-resistant, mefloquine-sensitive, second value in brackets not explained
Description: (§5) All test compounds are solubilized in DMSO and diluted 400 fold (to rule out a DMSO effect) in culture medium with plasma for a starting concentration of at least 12,500 ng/mL. Drugs are subsequently diluted five fold using the Cetus Pro/Pette system utilizing a range of concentrations from 0.8 ng/mL to 12,500 ng/mL. Fifty percent inhibitory concentrations are reported in ng/mL.
(§6) The D6 African P. falciparum clone is sensitive to chloroquine, pyrimethamine and sulfadoxine but resistant to mefloquine. The W2 Indochina P. falciparum clone is resistant to chloroquine, pyrimethamine and sulfadoxine but sensitive to mefloquine. The K1 P. falciparum is a resistant strain, where NF54 P. falciparum is a sensitive strain.

P. yoelli ssp. NS = assay: in vivo 4-day antimalarial test in mice, P. yoelli ssp. NS; conditions: subcutaneous; unit not given
Description: as §4

[4] = tested on: P. falciparum Sierra Leone D6 clone; assay: WHO/TDR in vitro antimalarial screen (uptake of radiolabeled nucleic acid precursor), D6 clone; assay type: cell-based, Plasmodium falciparum; conditions: mefloquine-resistant, chloroquine-sensitive, second value in brackets not explained
Description: as §5, §6

P. falciparum NF54 = assay: WHO/TDR in vitro antimalarial screen, NF54; assay type: cell-based, Plasmodium falciparum; conditions: NF54, chloroquine-sensitive; second value in brackets not explained
Description: as §5, with “[…]. All” for “All”
as §6

[5] = tested on: Leishmania donovani promastigotes expressing firefly luciferase; assay: antileishmanial luciferase assay on transgenic promastigotes; assay type: cell-based; conditions: Table 1 (artemisinin analogues); NA = not active up to 125 μg/ml; read-out: Antileishmanial activity IC50
Description: (§7) Antileishmanial activity of the compounds was tested on a transgenic cell line of Leishmania donovani promastigotes expressing firefly luciferase.^29a In a 96 well microplate assay, compounds with appropriate dilution were added to the leishmania promastigotes culture (2×10^6 cell/mL). The plates were incubated at 26° C. for 72 hours and growth of leishmania promastigotes was determined by luciferase assay with Steady Glo® reagent (Promega, USA). Pentamidine and Amphotericin B were used as standard antileishmanial agents. The analogues were simultaneously tested for cytotoxicity on VERO cells (monkey kidney fibroblast) by Neutral Red assay.^29b IC50 values for the compounds were computed from the growth inhibition curve.

P. falciparum K1 = assay: WHO/TDR in vitro antimalarial screen, K1; assay type: cell-based, Plasmodium falciparum; conditions: K1, chloroquine-resistant
Description: as §5, with “[…]. All” for “All”
as §6

aqueous solubility = assay type: physicochemical; conditions: pH 6.5, phosphate buffer
Description: (§8) Compounds 39 and 36 have reasonably low plasma LOQ of about 10 ng/mL, so it will be tested with lower oral doses in the coming future. If we assume that it is only the fraction of drug in solution that is absorbed, then the oral bioavailabilities may well increase with lower doses.

[6] = tested on: VERO cells (monkey kidney fibroblast); assay type: cell-based
Description: as §7

[7] = pharmacokinetics in rats after intravenous and oral administration; assay type: in vivo; conditions: for absolute oral bioavailability: high oral dose (~120 mg/kg)
Description: Preliminary data for the PK results of compounds 39 and 36 have been disclosed. […] Due to their very low aqueous solubility, the absolute oral bioavailability of each compound was low. The low value is rather a function of the high oral dose (˜120 mg/kg), but even with these high doses, the plasma concentrations are still relatively low.
The reason for the use of high oral dose is that the LC/MS assay has different intrinsic sensitivities for the different series of the Malperox compounds. Also, in order to compare all compounds from the different series at the same oral molar dose (dictated by the compound, which has the highest LOQ in the assay), it was necessary for them to have gone with this dose.
as §8
Solubility limitations meant that 36 could only be dosed IV at approximate 2 mg/kg (compared with the approximate 12 mg/kg dose for 39). It is possible that the shorter measured half life for 36 was a function of lower plasma concentrations, which have reflected part of the distribution phase rather than a true elimination phase.

Molecule | P. falciparum (IC50) D6 [1] [µg/mL] | S. I. (D6) [1] | P. berghei N P.O. ED50 (P. berghei N) | P. berghei N P.O. ED90 (P. berghei N) | P. berghei N S.C. ED50 (P. berghei N) | P. berghei N S.C. ED90 (P. berghei N) | P. falciparum (IC50) W2 [2] [µg/mL] | S. I. (W2) [2] | P. falciparum (IC50) W2 [3] [µg/mL] | P. yoelli ssp. NS (S.C.) ED50 (P. yoelli ssp. NS) | P. yoelli ssp. NS (S.C.) ED90 (P. yoelli ssp. NS) | P. falciparum (IC50) D6 [4] [µg/mL] | P. falciparum (IC50) NF54 (P. falciparum NF54) | P. falciparum (IC50) K1 (P. falciparum K1) [µg/mL] | aqueous solubility (aqueous solubility) [microgram per mL] | absolute oral bioavailability [7] | further results
C[C@H]1[C@@H](O)O[C@@H]2O[C@@]3(C)CC[C@H]4[C@H](C)CC[C@@H]1[C@@]24OO3 [dihydroartemisinin] | – | – | – | – | – | – | – | – | – | – | – | – | – | – | – | – | times more potent than the parent compound (artemisinin) in vitro (P. falciparum): approximately 10 times
(+)-Octahydro-3,6α-dimethyl-3,12-epoxy-9β-(3′-(m-trifluoromethylphenyl)propyl)-12H-pyrano[4,3j]-1,2-benzodioxepin [Compound 38] | 0.0087 | >55.0 | 1.25 (0.5-2.3) | 4.4 (1.3-6.2) | 0.4 (0.2-1.2) | 0.75 (0.4-2.1) | 0.011 | >43 | 0.03032 | 0.60 (0.3-0.9) | 1.00 (0.5-1.5) | 0.00848 | 35.60 (30.76) ng/mL | 0.012 | – | – | IC50 ([1]; pLDH assay, Table 5, read-out: P. falciparum (D6 Clone) IC50): 27.8 nM; IC50 ([2]; pLDH assay, Table 5, read-out: P. falciparum (W2 Clone) IC50): 11.3 nM; IC50 [5]: 1900 nM
(+)-Octahydro-3,6α-dimethyl-3,12-epoxy-9β-(3′-(m-chlorophenyl)propyl)-12H-pyrano[4,3j]-1,2-benzodioxepin [Compound 36] | 0.0076 | >63.0 | 2.0 (0.9-3.5) | 8.3 (3.5-14.0) | 0.5 (0.1-1.0) | 0.9 (0.3-1.8) | 0.008 | >60 | 0.0216 | 0.60 (0.4-1.0) | 1.00 (0.8-1.8) | 0.00755 | 16.27 (40.19) ng/mL | 0.01007 | ~0.1 | low | Cytotoxicity (Vero) TC50 [6]: NC^b
(+)-Octahydro-3,6α-dimethyl-3,12-epoxy-9β-(3′-(p-trifluoromethylphenyl)propyl)-12H-pyrano[4,3j]-1,2-benzodioxepin [Compound 39] | 0.012 | >40 | 0.63 (0.32-1.25) | 2.1 (1.1-4.1) | 0.44 (0.25-0.62) | 0.85 (0.5-1.2) | 0.012 | >40 | 0.05801 | 0.67 (0.5-0.88) | 1.25 (0.95-1.6) | 0.02813 | 101.52 (48.78) ng/mL | 0.03955 | ~0.1 | low | half-life ([7]; IV, approximate 12 mg/kg): 1.22 h
